From patent publication US11730723B2, “Compounds and methods for treating viral infections” (priority 2020, dated 2023)
Converted amounts (≈) assume the structure as drawn. “And” between values parts separate entries of the source, which are not always exact repeats. Equal values may be shown once. Read-outs that look alike come from different tables or passages of the source.

Assays:
[1] = Cytotoxicity on MRC-5 cells (CellTiter Glo); conditions: human, MRC-5 cells without virus
[2] = Cytotoxicity on Huh7 cells (CellTiter Glo); conditions: human, Huh7 cells without virus
[3] = test system: HCoV OC43; assay: HCoV OC43 CPE assay in Huh7 cells (CellTiter Glo); format: cell-based, human coronavirus (HCoV) OC43; conditions: Betacoronavirus 1, OC43, Huh-7; Huh7 cells, CellTiter Glo; read-out: HCoV OC43 CPE Assay EC50
[4] = test system: H292 cells (NCI-H292); assay: Cytotoxicity in uninfected H292 cells (MTT); conditions: CC50, uninfected H292 cells
[5] = in vitro; conditions: African green monkey
[6] = test system: HCoV-OC43; assay: HCoV-OC43 CPE assay in Huh-7 cells (neutral red uptake, 6 days); format: cell-based, human coronavirus (HCoV) OC43 strain; conditions: for Raw OD-Absorbance 490 nm: infected Huh-7, neutral red uptake, individual replicates
[7] = test system: Huh-7 cells; assay: Cytotoxicity / viability of uninfected Huh-7 cells (XTT, 6 days); conditions: 6 days, raw absorbance 490 nm, individual replicates, listed as Compd. 1
[8] = in vitro; conditions: African green monkey, Vero 76 cells
[9] = test system: alpha coronavirus 229E (CoV-229E); assay: CoV-229E virus-induced CPE inhibition in MRC-5 cells (XTT); conditions: 6 days
[10] = test system: MERS coronavirus (EMC strain); assay: microbe, parasite or virus in culture; format: cell-based, MERS-CoV; conditions: Middle East respiratory syndrome-related coronavirus
[11] = test system: HCoV 229E; assay: HCoV 229E CPE assay in MRC-5 cells (CellTiter Glo); format: cell-based, human coronavirus (HCoV) 229E; conditions: unidentified human coronavirus, MRC5; MRC-5 cells, CellTiter Glo; read-out: HCoV 229E CPE assay EC50
[12] = test system: dengue virus (DENV) serotype 2 strain D2S221; assay: Dengue virus D2S221 inhibition assay in Vero cells (immunostaining); conditions: read-out: D2S221 IC50
[13] = test system: SARS-CoV-2 (USA-WA1/2020); assay: microbe, parasite or virus in culture
[14] = test system: HCoV-OC43; assay: HCoV-OC43 efficacy in H292 cells (MTT, 6 days); format: cell-based, HCoV-OC43 (Betacoronavirus 1)
[15] = test system: HBV wild-type strain ayw1; assay: Primary anti-HBV assay in HepG2 2.2.15 cells (qPCR of HBV DNA); conditions: Hepatitis B virus, HepG2 2.2.15, 144 h
[16] = in vitro; conditions: African green monkey; remark: listed apart in the source
[17] = Cytotoxicity in HepG2 2.2.15 cells (MTS); format: cell-based; conditions: human, same assay plate
[18] = test system: SARS-CoV-2 (USA-WA1/2020); conditions: Compound 1 at 25 μM; HCQ at 5 μM; remdesivir 10 μM
[19] = test system: Vero E6 cells; conditions: for viability of Vero E6 cells (percent of vehicle alone): 2-day treatment, mean ± SD of duplicates

## CC(C)C[C@](C)(N)COc1ccc(-c2ccnc(C(F)F)c2)nc1C(F)F [Compound 1, (S)-1-((2′,6-bis(difluoromethyl)-[2,4′-bipyridin]-5-yl)oxy)-2,4-dimethylpentan-2-amine]
[1]
  CC50: 15 µM
[2]
  CC50: 13.2 µM
[3]
  EC50: 6 µM
[4]
  Cytotoxicity: 57.72 µM
[5]
  CC50: 37 µM
[6]; Betacoronavirus 1, OC43, 144 h, Huh-7 cells, 6 days, neutral red
  EC50: > 30 µM
[6]; Betacoronavirus 1, OC43, Huh-7, 0.01 μM, mean of duplicates, read-out: Inhibition of OC43 Virus-Induced CPE in Huh-7 Cells
  inhibition at 0.01 µM: -0.4%
[6]; Betacoronavirus 1, OC43, Huh-7, 0.04 μM, mean of duplicates, read-out: Inhibition of OC43 Virus-Induced CPE in Huh-7 Cells
  inhibition at 0.04 µM: -3%
[6]; Betacoronavirus 1, OC43, Huh-7, 0.12 μM, mean of duplicates, read-out: Inhibition of OC43 Virus-Induced CPE in Huh-7 Cells
  inhibition at 0.12 µM: -1.2%
[6]; Betacoronavirus 1, OC43, Huh-7, 0.4 μM, mean of duplicates, read-out: Inhibition of OC43 Virus-Induced CPE in Huh-7 Cells
  inhibition at 0.4 µM: -1.8%
[6]; Betacoronavirus 1, OC43, Huh-7, 1.1 μM, mean of duplicates, read-out: Inhibition of OC43 Virus-Induced CPE in Huh-7 Cells
  inhibition at 1.1 µM: 5.4%
[6]; Betacoronavirus 1, OC43, Huh-7, 3.3 μM, mean of duplicates, read-out: Inhibition of OC43 Virus-Induced CPE in Huh-7 Cells
  inhibition at 3.3 µM: 25.2%
[6]; Betacoronavirus 1, OC43, Huh-7, 10 μM, mean of duplicates, read-out: Inhibition of OC43 Virus-Induced CPE in Huh-7 Cells
  inhibition at 10 µM: 30.7%
[6]; Betacoronavirus 1, OC43, Huh-7, 30 μM, mean of duplicates, read-out: Inhibition of OC43 Virus-Induced CPE in Huh-7 Cells
  inhibition at 30 µM: -7.1%
[6]; 0.01 μM, listed as Compd. 1
  Raw OD-Absorbance 490 nm: 0.102 and 0.101
[6]; 0.04 μM, listed as Compd. 1
  Raw OD-Absorbance 490 nm: 0.078 and 0.089
[6]; 0.12 μM, listed as Compd. 1
  Raw OD-Absorbance 490 nm: 0.092 and 0.099
[6]; 0.4 μM
  Raw OD-Absorbance 490 nm: 0.092
[6]; 1.1 μM, listed as Compd. 1
  Raw OD-Absorbance 490 nm: 0.115 and 0.165
[6]; 3.3 μM, listed as Compd. 1
  Raw OD-Absorbance 490 nm: 0.292 and 0.253
[6]; 10 μM, listed as Compd. 1
  Raw OD-Absorbance 490 nm: 0.322 and 0.297
[6]; 30 μM, listed as Compd. 1
  Raw OD-Absorbance 490 nm: 0.057 and 0.056
[7]; 0.01 μM
  Viability of Huh-7 Cells (A490): 0.749 and 0.746
[7]; 0.04 μM
  Viability of Huh-7 Cells (A490): 0.731 and 0.759
[7]; 0.12 μM
  Viability of Huh-7 Cells (A490): 0.822 and 0.825
[7]; 0.37 μM
  Viability of Huh-7 Cells (A490): 0.886 and 0.928
[7]; 1.1 μM
  Viability of Huh-7 Cells (A490): 0.925 and 0.996
[7]; 3.3 μM
  Viability of Huh-7 Cells (A490): 1.017 and 1.085
[7]; 10 μM
  Viability of Huh-7 Cells (A490): 0.915 and 1.016
[7]; 30 μM
  Viability of Huh-7 Cells (A490): 0.052 and 0.053
[7]; 90 μM
  Viability of Huh-7 Cells (A490): 0.055 and 0.054
[8]; CC50 measured by microscopic visual assay
  CC50: 22 µg/mL (≈ 57.1 µM)
[8]; CC50 measured by neutral red assay
  CC50: 11 µg/mL (≈ 28.5 µM)
[9]
  EC50: ~2.4 µM and 2.4 µM
[10]; Vero 76, read-out: EC50 measured by microscopic visual assay
  EC50: 6.4 µg/mL (≈ 16.6 µM)
[10]; Vero 76, read-out: EC50 measured by neutral red assay
  EC50: 5.4 µg/mL (≈ 14 µM)
[11]
  EC50: 3.64 µM
[12]
  IC50: 6.66 µM
[13]; Severe acute respiratory syndrome coronavirus 2, Vero C1008, 48 h, read-out: Live SARS-CoV-2 Antiviral Assay IC50
  IC50: 12.5 to 25 µM
[13]; Severe acute respiratory syndrome coronavirus 2, Vero C1008, read-out: cell viability in the infected culture, of the levels observed in uninfected cells
  viability at 25 µM: 80%
[14]; Betacoronavirus 1, NCI-H292, EC50, HCoV-OC43 infected H292 cells, MTT, read-out: Efficacy
  EC50: 1.43 µM
[14]; viability of infected H292 cells, FIG. 6
  antiviral activity against β-coronavirus OC43 in H292 cells (in words): significant antiviral effect
[15]
  EC50: 6.35 µM
  EC90: > 100 µM
[16]
  CC50 at 4 days: 13.5 µM
[17]
  CC50: 29.3 µM
[18]
  prevention of the SARS-CoV-2 induced CPE (in words): partially prevented the virus induced cytopathic effect
[19]; 1.56 μM
  viability of Vero E6 cells (percent of vehicle alone): 101.0 ± 5.2%
[19]; 3.13 μM
  viability of Vero E6 cells (percent of vehicle alone): 97.1 ± 5.2%
[19]; 6.3 μM
  viability of Vero E6 cells (percent of vehicle alone): 86.2 ± 3.2%
[19]; 12.5 μM
  viability of Vero E6 cells (percent of vehicle alone): 83.3 ± 1.7%
[19]; 25 μM
  viability of Vero E6 cells (percent of vehicle alone): 80.7 ± 2.4%
[19]; 50 μM
  viability of Vero E6 cells (percent of vehicle alone): 17.3 ± 8.4%
[19]; 100 μM
  viability of Vero E6 cells (percent of vehicle alone): 2.0 ± 0.2%
[19]; Compound 1 at concentrations lower than 25 μM, HCQ at all concentrations tested
  viability of Vero E6 cells (in words): not significantly changed
